Measurements: patent US20110136665A1

Key:
Alternaria solani = test: Persistency against early blight on tomatoes caused by Alternaria solani, 5 day protective treatment; settings: tomato
Procedure: (§1) The mixture was then made up with water to 100 ml.
To test for persistency, the leaves were infected with an aqueous spore suspension of Alternaria solani in a 2% strength biomalt solution having a density of 0.17×10^6 spores/ml only after 5 days. The plants were then placed in a water-vapor-saturated chamber at temperatures between 20 and 22° C.
Evaluation was carried out analogously to Example 1.

Leptosphaeria nodorum = test: Activity against Septoria nodorum blotch of wheat caused by Leptosphaeria nodorum
Procedure: as §1
The next day, the pots were inoculated with an aqueous spore suspension of Leptosphaeria nodorum (syn. Stagonospora nodorum, Septoria nodorum). The plants were then placed in a chamber at 20° C. and maximum atmospheric humidity.

Compound	Efficacy in % of the untrated control (Alternaria solani; 0.8 ppm in spray liquor)	Efficacy in % of the untrated control (Alternaria solani; 1.6 ppm in spray liquor)	Efficacy in % of the untrated control (Alternaria solani; 3.1 ppm in spray liquor)	Efficacy in % of the untrated control (Alternaria solani; 6.25 ppm in spray liquor)	Efficacy in % of the untrated control (Alternaria solani; 25 ppm in spray liquor)	Efficacy in % of the untrated control (Leptosphaeria nodorum; 0.4 ppm in spray liquor)	Efficacy in % of the untrated control (Leptosphaeria nodorum; 0.8 ppm in spray liquor)	Efficacy in % of the untrated control (Leptosphaeria nodorum; 1.6 ppm in spray liquor)	Efficacy in % of the untrated control (Leptosphaeria nodorum; 3.1 ppm in spray liquor)	Efficacy in % of the untrated control (Leptosphaeria nodorum; 12.5 ppm in spray liquor)
Fc1ccc([C@]2(Cn3cncn3)O[C@H]2c2ccccc2Cl)cc1 (racemic) [epoxiconazole, (2RS,3SR)-1-[3-(2-chlorophenyl)-2,3-epoxy-2-(4-fluorophenyl)propyl]-1H-1,2,4-triazole]	0%	0%	0%	0%	0%	0%	0%	33%		
O=C(Nc1ccccc1-c1ccc(Cl)cc1)c1cccnc1Cl [boscalid, 2-chloro-N-(4′-chlorobiphenyl-2-yl)nicotinamide]				0%				0%	11%	33%
CC1(C)CCC(Cc2ccc(Cl)cc2)C1(O)Cn1cncn1 (stereo not drawn) [metconazole, 5-(4-chlorobenzyl)-2,2-dimethyl-1-[1,2,4]triazol-1-ylmethylcyclopentanol]						0%	0%	56%		
